From patent US9018252B2, “Stable compositions of dehydroascorbic acid” (priority 2010, dated 2015)

Assays:
[1] = tested on: HSV-1, influenza virus, poliovirus; conditions: cited from earlier work; for antiviral effects in vitro: viruses such as HSV-1, influenza virus, poliovirus
[2] = solid form; cited from earlier work
[3] = DHAA stability testing of ozone-oxidized glycerol/water solutions (Example 1); type: physicochemical
From the text: (§1) AA concentration in solution is commonly measured as the reducing activity of the solution using starch-iodine titration methods that are well-known in the art. […] This method is also well known in the art. DHAA in solution can be converted into AA by reducing agents such as dithiothreitol (DTT) or tris(2-carboxyethyl)phosphine (TCEP), and its concentration is commonly measured spectrophotometrically as the difference in absorbance of a solution subjected to reduction by DTT or TCEP versus a similar solution that is not subjected to a reducing agent. These methods are also well-known in the art, but see Deutsch for examples. In the description, claims, and the following examples, DHAA in the compositions of the invention is the vitamin C that can be measured by the difference in absorbance at 262 nm using TCEP reducing agent.
A 15% AA solution in water was prepared by adding 15 grams AA per 100 mL purified water with stirring. A 15% solution of AA in glycerol was prepared by adding 15 grams AA per 100 mL pure USP glycerol and stirring with heat. A corona-discharge type ozone generator with feed-gas of pure oxygen was used to supply an oxidizing gas containing about 5% ozone, and each of the 15% AA solutions was subjected to oxidizing conditions by bubbling the oxidizing gas through the solution using a glass diffuser. The progress of AA oxidation in each solution was monitored by the disappearance of reducing activity as measured by starch-iodine titration. Each solution was subjected to the oxidizing conditions until all (>99%) of the original reducing activity had disappeared. The solution made with pure glycerol was labeled “100% Glycerol,” and the solution made with purified water was labeled “100% Water.” Portions of these two solutions were combined to produce solutions of various glycerol concentrations by weight, specifically “99% Glycerol,” “98% Glycerol,” “97% Glycerol,” “96% Glycerol,” “95% Glycerol”, “90% Glycerol,” and “50% Glycerol.” For example, 99 parts by weight of “100% Glycerol” was combined with 1 part by weight “100% Water” to produce the “99% Glycerol” solution.
Aliquots of each of the solutions prepared above were placed in translucent, screw-capped polyethylene vials and were stored at room temperature. No attempt was made to further protect the vials from ambient indoor light, and each vial contained a headspace of normal air. Each vial was periodically opened to remove a sample for stability testing over the next 229 days. The concentration of DHAA in each sample was measured by spectrometry on each testing day. The initial DHAA concentration of each solution on Day 1 was recorded and assigned a value of 100%, and the concentration on each subsequent stability test day was calculated as the percent remaining of the initial concentration.

[4] = DHAA stability testing of glycerol solution oxidized with activated charcoal and oxygen (Example 2); type: physicochemical; conditions: "100% Glycerol", activated charcoal/oxygen oxidation, room temperature, 191 days
From the text: as §1
A solution of AA in pure USP glycerol was subjected to oxidizing conditions by suspending activated charcoal in the solution and then bubbling pure oxygen through the solution. Oxidation of AA during this process was monitored by starch-iodine titration. After the desired amount of AA had been oxidized, the activated charcoal was removed from the solution by centrifugation and filtration. […] The concentration of DHAA in the sample was measured by spectrometry on each testing day. […]

[5] = DHAA stability testing of propylene glycol/water solutions oxidized with Fenton's Reagent (Example 3); type: physicochemical; conditions: room temperature
From the text: as §1
AA was dissolved in purified water to give a highly concentrated solution, and then sufficient 30% hydrogen peroxide was added to oxidize about half of the AA. Iron to catalyze the reaction was provided by addition of ferrous sulfate. Oxidation of the AA was monitored by spectrometry until the expected amount of AA had been oxidized. This solution was labeled “100% Water.” Portions of this solution were combined with portions of pure, USP grade propylene glycol to produce solutions of “97% Propylene Glycol,” “95% Propylene Glycol,” “90% Propylene Glycol,” “80% Propylene Glycol,” “70% Propylene Glycol,” and “50% Propylene Glycol.” For example, 3 parts by volume of the “100% Water” solution were combined with 97 parts by volume propylene glycol to yield the “97% Propylene Glycol” solution.
(§2) Aliquots of each of the solutions prepared above were placed in translucent, screw-capped polyethylene vials and were stored at room temperature. […] The concentration of DHAA in each sample was measured by spectrometry on each testing day. The initial DHAA concentration of each solution was recorded and assigned a value of 100% (Day 0), and the concentration on each subsequent stability test day was calculated as the percent remaining of the initial concentration.

[6] = DHAA stability testing of solutions with various AA:DHAA ratios (Example 4); type: physicochemical
From the text: AA concentration in solution is commonly measured as the reducing activity of the solution using starch-iodine titration methods that are well-known in the art. […] This method is also well known in the art. DHAA in solution can be converted into AA by reducing agents such as dithiothreitol (DTT) or tris(2-carboxyethyl)phosphine (TCEP), and its concentration is commonly measured spectrophotometrically as the difference in absorbance of a solution subjected to reduction by DTT or TCEP versus a similar solution that is not subjected to a reducing agent. These methods are also well-known in the art, but see Deutsch for examples. In the description, claims, and the following examples, DHAA in the compositions of the invention is the vitamin C that can be measured by the difference in absorbance at 262 nm using TCEP reducing agent. […]
as §2, with “transparent,” for “translucent,”, “glass” for “polyethylene”

[7] = Absorption of AA and DHAA into skin of human volunteers after topical application (Example 5); type: in vivo; conditions: 1.4 mg/cm^2, after 4 hours
Description: This solution was applied topically to the skin of human volunteers to compare the absorption rate of AA versus DHAA. To assess permeation into the stratum corneum, the solution was diluted 1:1 with water and applied at a rate of 1.4 mg/cm^2 to delineated skin surfaces and allowed 0, 2 or 4 hours for absorption. Each skin surface was then washed with deionized water, and the skin washings were collected and measured for AA and DHAA content. The amount absorbed at 2 and 4 hours was determined by subtraction from the amount present in the 0 hour washings.
Data points are the mean+/−SD of triplicate analyses on 4 subjects. The 2 and 4 hour values are the difference as percentage from the 0 hour (baseline) values, determined by analysis of skin washings. It can be seem that after 4 hours DHAA had absorbed into the skin at a rate about 12 times greater than AA, and that the total vitamin C content of the skin was increased at a much more rapid rate than applying AA alone. (Asterisks on FIG. 21 indicate the following: * Statistically significant at P<0.05. ** Statistically significant at P<0.01).

[8] = DHAA stability in polyol solutions (general statements); type: physicochemical
human skin cells = conditions: cited from earlier work

Row | Structure (SMILES) | antiviral effects in vitro [1] | ease of dissolving the solid in water, AA compared with DHAA [2] | DHAA stability compared with water ([3]; 50% glycerol concentration, room temperature) | initial amount of DHAA remaining ([3]; "100% Water" solution, room temperature, tested at 20 days) | initial DHAA concentration remaining ([3]; pure glycerol ("100% Glycerol"), approximately 8 months of storage at room temperature) | DHAA stability ([3]; solutions containing high concentrations of glycerol, room temperature, up to 229 days) | DHAA stability [4] | initial amount of DHAA remaining ([5]; "100% Water" solution (Fenton's Reagent), after 5 days) | DHAA concentration over time ([5]; many of the propylene glycol solutions, 31 days) | DHAA stability ([5]; solutions containing high concentrations of propylene glycol, 31 days) | initial amount of DHAA remaining ([6]; "Control": 100% water, initial AA:DHAA about 1:1, room temperature, after 3 days) | DHAA stability ([6]; polyol (100% glycerin) solutions with AA:DHAA ratios between 2:1 and 99:1, room temperature, 30 days) | rate of absorption into the skin, DHAA relative to AA [7] | DHAA stability ([8]; polyol solutions with high water content (water to glycol/polyol at least 1:1)) | DHAA stability ([8]; pure polyol solvents and solutions with polyol content greater than about 50 percent) | level absorbed into cells, DHAA relative to AA (human skin cells) [times] | speed of absorption into cells, DHAA relative to AA (human skin cells) | antiviral effects of DHAA compared with AA ([1]; in vitro)
1 | O=C1O[C@H]([C@@H](O)CO)C(O)=C1O [AA, ascorbic acid] | antiviral effects | far more easily dissolved |  |  |  |  |  |  |  |  |  |  |  |  |  |  |  | 
2 | O=C1O[C@H]([C@@H](O)CO)C(=O)C1=O [DHAA, dehydroascorbic acid] | antiviral effects |  | only minor improvement | less than 10% | greater than 80% | preserved very well | excellent long-term stability | less than 20% | increased significantly | preserved very well | less than 20% | preserved very well | about 12 times | not stable | stable | 2 | up to 5 times | much stronger
